The values that follow come from patent publication US5767296A, “Deacetoxytaxol derivatives” (Daiichi Pharmaceutical Co., Ltd., priority 1994, dated 1998).

≈ marks a conversion by molar mass, not a printed value. Read-outs that look alike come from different tables or passages of the source.

What is called GI50 is the concentration that inhibits growth by half.

Experiment [1] concerns PC-6. Description: Antitumor effect by MTT assay, PC-6 tumor cells. To be noted: Homo sapiens, read-out: GI50 Value. The format is cell-based. Here is the method:
(§1) Each of three tumor cells, P388, PC-6 and PC-12, were inoculated in a 96-well microplate in amounts of 5.0×10^2 cells/150 μl/well of P388, 5.0×10^3 cells/150 μl/well of PC-6, and 1.0×10^3 cells/150 μl/well of PC-12, and after 2 hours in the case of P388 or after 24 hours in the cases of PC-6 and PC-12, test compound was added to the well in an amount of 50 μl/well in each case. Cells were cultivated for 3 days. Then, a 5 mg/ml solution of MTT [3-(4,5-dimethylthiazol-2-yl)-2,5-diphenyl-2H-tetrazolium bromide] was added to the well in an amount of 20 μl/well. After 4 hours, the culture liquid was removed, dimethylsulfoxide was added to the well in an amount of 150 μl/well, and the absorbance at 540 nm was measured. The antitumor effect was determined in terms of a concentration of the test compound required for suppressing the cell growth in the medicated group to 50% of the cell growth in the control group, i.e., a GI50 value (ng/ml).

The subject of experiment [2] is P388. Description: Antitumor effect by MTT assay, P388 tumor cells. The format is cell-based. Particulars: Mus musculus, read-out: GI50 Value. The procedure:
as §1
Background: Tetrazolium dyes change colour on reduction, which living cells bring about.

Experiment [3] concerns PC-12. As to the kind of experiment: Antitumor effect by MTT assay, PC-12 tumor cells. To be noted: Rattus norvegicus, read-out: GI50 Value. The format is cell-based. The procedure: as §1
The subject of experiment [4] is microtubules. Particulars: background art; cited from earlier work.
In experiment [5] the test system is cancers of digestive tracts, in particular, the cancer of large intestine. To be noted: background art; cited from earlier work.
The test system of experiment [6] is tumor. To be noted: background art; cited from earlier work.

As for `CCC(=O)O[C@@]12CO[C@@H]1C[C@H](O)[C@@]1(C)C(=O)C(CCN3CCOCC3)C3=C(C)[C@@H](OC(=O)C(O)C(C=C(C)C)NC(=O)OC(C)(C)C)C[C@@](O)([C@@H](OC(=O)c4ccccc4)[C@H]21)C3(C)C` (single isomer, unassigned) [Example 33 Isomer B, 13-O-[3-(tert-Butoxycarbonylamino)-2-hydroxy-5-methyl-4-hexenoyl]-10-deacetoxy-4-deacetyl-10-(2-morpholinoethyl)-4-O-propionylbaccatin III], the GI50 in experiment [1] (PC-6, 72 h) came to 4.13 ng/mL (≈ 4.6 nM); in experiment [2] (P388, 72 h), 0.69 ng/mL (≈ 0.769 nM); in experiment [3] (PC-12, 72 h), 4.16 ng/mL (≈ 4.64 nM).
As to `COC(=O)CCC1C(=O)[C@@]2(C)[C@H]([C@H](OC(=O)c3ccccc3)[C@]3(O)C[C@H](OC(=O)[C@H](O)[C@@H](NC(=O)OC(C)(C)C)c4ccccc4)C(C)=C1C3(C)C)[C@]1(OC(C)=O)CO[C@@H]1C[C@@H]2O` (stereo partly drawn) [Example 7, 13-O-[(2R,3S)-3-(tert-Butoxycarbonylamino)-2-hydroxy-3-phenylpropionyl]-10-deacetoxy-10-(2-methoxycarbonylethyl)baccatin III], the GI50 in experiment [1] (PC-6, 72 h) stood at 0.771 ng/mL (≈ 0.878 nM); in experiment [2] (P388, 72 h) it was 3.3 ng/mL (≈ 3.76 nM); in experiment [3] (PC-12, 72 h) it was 24.4 ng/mL (≈ 27.8 nM).
The like results for `C=CCC1C(=O)[C@@]2(C)[C@H]([C@H](OC(=O)c3ccccc3)[C@]3(O)C[C@H](OC(=O)[C@H](O)[C@@H](NC(=O)OC(C)(C)C)c4ccccc4)C(C)=C1C3(C)C)[C@]1(OC(C)=O)CO[C@@H]1C[C@@H]2O` (stereo partly drawn) [Example 16, 10-Allyl-13-O-[(2R,3S)-3-(tert-butoxycarbonylamino)-2-hydroxy-3-phenylpropionyl]-10-deacetoxybaccatin III] were, in that order, 0.677 ng/mL (≈ 0.814 nM), 1.16 ng/mL (≈ 1.39 nM) and 7.87 ng/mL (≈ 9.46 nM).
The like results for `CC(=O)O[C@@]12CO[C@@H]1C[C@H](O)[C@@]1(C)C(=O)C(CC=O)C3=C(C)[C@@H](OC(=O)[C@H](O)[C@@H](NC(=O)OC(C)(C)C)c4ccccc4)C[C@@](O)([C@@H](OC(=O)c4ccccc4)[C@H]21)C3(C)C` (stereo partly drawn) [Example 18, 13-O-[(2R,3S)-3-(tert-Butoxycarbonylamino)-2-hydroxy-3-phenylpropionyl]-10-deacetoxy-10-(formylmethyl)baccatin III] were, in that order, 0.983 ng/mL (≈ 1.18 nM), 1.19 ng/mL (≈ 1.43 nM) and 12.9 ng/mL (≈ 15.5 nM).
Turning to `CC(=O)O[C@@]12CO[C@@H]1C[C@H](O)[C@@]1(C)C(=O)C(CCN3CCOCC3)C3=C(C)[C@@H](OC(=O)[C@H](O)[C@@H](NC(=O)OC(C)(C)C)c4ccccc4)C[C@@](O)([C@@H](OC(=O)c4ccccc4)[C@H]21)C3(C)C` (stereo partly drawn) [Example 20, 13-O-[(2R,3S)-3-(tert-Butoxycarbonylamino)-2-hydroxy-3-phenylpropionyl]-10-deacetoxy-10-(2-morpholinoethyl)baccatin III], the 50% growth inhibitory concentration (GI50) worked out at 0.603 ng/mL (≈ 0.666 nM) in experiment [1] (72 h, PC-6, 3 days, MTT); 3.07 ng/mL (≈ 3.39 nM) in experiment [2] (72 h, P388, 3 days, MTT); 13.5 ng/mL (≈ 14.9 nM) in experiment [3] (72 h, PC-12, 3 days, MTT).
Regarding `CCCC(=O)O[C@@]12CO[C@@H]1C[C@H](O)[C@@]1(C)C(=O)C(CCN3CCOCC3)C3=C(C)[C@@H](OC(=O)[C@H](O)[C@@H](NC(=O)OC(C)(C)C)c4ccccc4)C[C@@](O)([C@@H](OC(=O)c4ccccc4)[C@H]21)C3(C)C` (stereo partly drawn) [Example 24, 4-O-Butanoyl-13-O-[(2R,3S)-3-(tert-butoxycarbonylamino)-2-hydroxy-3-phenylpropionyl]-10-deacetoxy-4-deacetyl-10-(2-morpholinoethyl)baccatin III], the concentration for 50% growth inhibition (GI50) in experiment [1] (PC-6, 72 h) came out at 1.67 ng/mL (≈ 1.79 nM); in experiment [2] (P388, 72 h), 0.845 ng/mL (≈ 0.906 nM); in experiment [3] (PC-12, 72 h), 4.99 ng/mL (≈ 5.35 nM).
Turning to `C=CCC1C(=O)[C@@]2(C)[C@H]([C@H](OC(=O)c3ccccc3)[C@]3(O)C[C@H](OC(=O)[C@H](O)[C@@H](NC(=O)OC(C)(C)C)c4ccco4)C(C)=C1C3(C)C)[C@]1(OC(=O)CCC)CO[C@@H]1C[C@@H]2O` (stereo partly drawn) [Example 25, 10-Allyl-4-O-Butanoyl-13-O-[3-(tert-butoxycarbonylamino)-3-(2-furyl)-2-hydroxypropionyl]-10-deacetoxy-4-deacetylbaccatin III], the 50% growth inhibitory concentration (GI50) came out at 0.771 ng/mL (≈ 0.907 nM) in experiment [1] (72 h, PC-6, 3 days, MTT); 0.226 ng/mL (≈ 0.266 nM) in experiment [2] (72 h, P388, 3 days, MTT); 1.34 ng/mL (≈ 1.58 nM) in experiment [3] (72 h, PC-12, 3 days, MTT).
As to `CCC(=O)O[C@@]12CO[C@@H]1C[C@H](O)[C@@]1(C)C(=O)C(CCN3CCOCC3)C3=C(C)[C@@H](OC(=O)[C@H](O)[C@@H](NC(=O)OC(C)(C)C)c4ccccc4)C[C@@](O)([C@@H](OC(=O)c4ccccc4)[C@H]21)C3(C)C` (stereo partly drawn) [Example 26, 13-O-[(2R,3S)-3-(tert-butoxycarbonylamino)-2-hydroxy-3-phenylpropionyl]-10-deacetoxy-4-deacetyl-10-(2-morpholinoethyl)-4-O-propionylbaccatin III], the concentration for 50% growth inhibition (GI50) was 1.22 ng/mL (≈ 1.33 nM) in experiment [1] (PC-6, 72 h); 1.07 ng/mL (≈ 1.16 nM) in experiment [2] (P388, 72 h); 5.64 ng/mL (≈ 6.14 nM) in experiment [3] (PC-12, 72 h).
On the same counts, the results for `CCC(=O)O[C@@]12CO[C@@H]1C[C@H](O)[C@@]1(C)C(=O)C(CCN3CCOCC3)C3=C(C)[C@@H](OC(=O)[C@H](O)[C@@H](NC(=O)OC(C)(C)C)c4ccco4)C[C@@](O)([C@@H](OC(=O)c4ccccc4)[C@H]21)C3(C)C` (stereo partly drawn) [Example 31, 13-O-[(2R,3S)-3-(tert-Butoxycarbonylamino)-3-(2-furyl)-2-hydroxypropionyl]-10-deacetoxy-4-deacetyl-10-(2-morpholinoethyl)-4-O-propionylbaccatin III] are 1.03 ng/mL (≈ 1.13 nM), 0.136 ng/mL (≈ 0.15 nM) and 1.26 ng/mL (≈ 1.39 nM).
For the compound `CCOC(=O)O[C@@]12CO[C@@H]1C[C@H](O)[C@@]1(C)C(=O)C(CCN3CCOCC3)C3=C(C)[C@@H](OC(=O)[C@H](O)[C@@H](NC(=O)OC(C)(C)C)c4ccccc4)C[C@@](O)([C@@H](OC(=O)c4ccccc4)[C@H]21)C3(C)C` (stereo partly drawn) [Example 35, 13-O-[(2R,3S)-3-(tert-Butoxycarbonylamino)-2-hydroxy-3-phenylpropionyl]-10-deacetoxy-4-deacetyl4-O-ethoxycarbonyl-10-(2-morpholinoethyl)baccatin III], the 50% growth inhibitory concentration (GI50) turned out to be 1.83 ng/mL (≈ 1.96 nM) in experiment [1] (PC-6, 72 h); 0.729 ng/mL (≈ 0.78 nM) in experiment [2] (P388, 72 h); 2.95 ng/mL (≈ 3.15 nM) in experiment [3] (PC-12, 72 h).
Consider `CC1=C2C(CCN3CCOCC3)C(=O)[C@@]3(C)[C@H]([C@H](OC(=O)c4ccccc4)[C@](O)(C[C@@H]1OC(=O)[C@H](O)[C@@H](NC(=O)OC(C)(C)C)c1ccccc1)C2(C)C)[C@]1(OC(=O)C2CC2)CO[C@@H]1C[C@@H]3O` (stereo partly drawn) [Example 36, 13-O-[(2R,3S)-3-(tert-butoxycarbonylamino)-2-hydroxy-3-phenylpropionyl]-4-O-cyclopropylcarbonyl-10-deacetoxy-10-(2-morpholinoethyl)baccatin III], for which the GI50 was 1.64 ng/mL (≈ 1.76 nM) in experiment [1] (PC-6, 72 h); 0.505 ng/mL (≈ 0.542 nM) in experiment [2] (P388, 72 h); 1.81 ng/mL (≈ 1.94 nM) in experiment [3] (PC-12, 72 h).
Turning to `CC(=O)O[C@H]1C(=O)[C@@]2(C)[C@H]([C@H](OC(=O)c3ccccc3)[C@]3(O)C[C@H](OC(=O)[C@H](O)[C@@H](NC(=O)c4ccccc4)c4ccccc4)C(C)=C1C3(C)C)[C@]1(OC(C)=O)CO[C@@H]1C[C@@H]2O` [Taxol], in experiment [4], the “inhibitory activity on the disassembly of microtubules in cytokinesis” value is “inhibitory activity on the disassembly of microtubules in cytokinesis”. The GI50 stood at 3.51 ng/mL (≈ 4.11 nM) in experiment [1] (PC-6, 72 h); 30.4 ng/mL (≈ 35.6 nM) in experiment [2] (P388, 72 h); 136 ng/mL (≈ 159 nM) in experiment [3] (PC-12, 72 h). In addition, the “effectiveness on cancers of digestive tracts” value in experiment [5] is reported as “weak”.
For `CC(=O)O[C@@]12CO[C@@H]1C[C@H](O)[C@@]1(C)C(=O)[C@H](O)C3=C(C)[C@@H](OC(=O)[C@H](O)[C@@H](NC(=O)OC(C)(C)C)c4ccccc4)C[C@@](O)([C@@H](OC(=O)c4ccccc4)[C@H]21)C3(C)C` [Taxotel, reference compound], the 50% growth inhibitory concentration (GI50) in experiment [1] (72 h, PC-6, 3 days, MTT) turned out to be 1.72 ng/mL (≈ 2.13 nM); in experiment [2] (72 h, P388, 3 days, MTT) it was 5.3 ng/mL (≈ 6.56 nM); in experiment [3] (72 h, PC-12, 3 days, MTT), 49.7 ng/mL (≈ 61.5 nM). In addition, in experiment [6], the “antitumor activity compared with taxol” value is reported as “equal to or higher than that of taxol”.
